Experimental data taken from US20240158339A1, “TYRAMINE CONTAINING HYDROXYCINNAMIC ACID AMIDE DERIVATIVES AND METHODS OF USE THEREOF” (Brightseed, Inc., priority 2018, published 2024).
“Also recorded” adds a separate entry of the source.

Assays:
[1] = system: E47MER; assay: Counter-screen for estrogenic activity (E47MER luciferase reporter in HeLa cells); assay type: cell-based, human; details: with 1 μM or without tamoxifen, FIG. 5
Experimental: Counter-Screen for Estrogenic Activity. Estrogenic activity was monitored by co-transfection of a reporter plasmid containing a multimerized E-box 5′ of a minimal promoter fused to the Firefly luciferase gene with wild-type E47 or E47MER (Kiselyuk, et al. (2010) J. Biomol. Screen 15(6):663-70). HeLa cells were transfected using polyethylenimine, 0.2 μg 4RTK-Luc plasmid and either 0.3 μg of human E47, E47MER or pMSCVhph vector in 50 μl of serum-free Dulbecco's modification of Eagle medium per well. Transfections included Renilla luciferase (pRL-TK) plasmid as a control for transfection efficacy. Transfection conditions were as described in the PPRE-Luc reporter assay of Kiselyuk, et al. ((2010) J. Biomol. Screen 15(6):663-70). Sixteen hours after transfection, culture media were changed and maintained for 48 hours with tamoxifen and/or compound or vehicle (DMSO). Cells were then lysed and assayed for luciferase activity using the Promega DUAL-LUCIFERASE® reporter assay kit (Promega Corp., Madison, WI), and luminescence was measured using the Veritas™ Microplate Luminometer (Turner Biosystems, Sunnyvale, CA). Data were normalized to Renilla luciferase (pRL-TK) and expressed as fold-change over vehicle alone.

[2] = Hepatic microsome stability assay, rat; assay type: in vitro ADME; details: for % Remaining: rat microsomes
Experimental: (§1) Hepatic Microsome Assay. Hepatic microsomes stability assays were performed in accordance with known methods (Peddibhotla, et al. (2013) ACS Med. Chem. Lett. 4:846-851). Briefly, 3 μL of 25 μM compound solution in acetonitrile were incubated with 123 μL of mouse, human or rat liver microsomes (Xenotech, Kansas City, KS). After preincubation at 37° C. for 10 minutes, enzyme reactions were initiated by adding 120 !at of NADPH-generating system (2 mM NADP+, 10 mM glucose-6-phosphate, 0.4 U/ml glucose-6-phosphate dehydrogenase, and 5 mM MgCl2) in the presence of 100 mM potassium phosphate buffer (pH 7.4). […] The microsomal concentrations used were 1.0 mg/mL. Compounds were incubated in microsomes for 0, 5, 15, 30 and 60 minutes. The reactions were stopped by the addition of ice cold ACN and the reaction mixtures were centrifuged at 10,000 g for 10 minutes before the supernatant was removed for analysis. A 10 μL portion of the resulting extract was injected on a Thermo HPLC system equipped with PAL CTC plate sampler (96-well plate), Dionex Ultimate 3000 binary pump (flow rate at 0. 600 mL/min), Dionex Ultimate 3000 thermostatted column compartment (temperature at 40° C.), Thermo Endura Mass Spectrometer (ESI source), using a Thermo Scientific Accucore C18 (2.6 μM, 2.1×50 mm) column. A gradient was run starting at 95% H2O (0.1% formic acid) and 5% ACN (0. 1% formic acid) during the first 0. 5 min, then under gradient condition of 5-100% ACN (0.1% formic acid) from minute 0. 5 to 3.5, finishing at 95% H2O (0.1% formic acid) and 5% ACN (0.1% formic acid) over 0.5 min, with another 1 min at 95:5 to re-equilibrate.

[3] = Hepatic microsome stability assay, human; assay type: in vitro ADME
Experimental: as §1

[4] = system: T6PNE cells; assay: Lipid clearance (steatosis assay) in T6PNE cells; assay type: cell-based
Experimental: T6PNE cells were pretreated for 1 day with 0.06 mM, 0.12 mM or 0.25 mM palmitate at which time 15 μM N-trans-caffeoyltyramine or control (DMSO) was added. Cells were harvested on day 3, 6 and 8 and subjected to staining with Nile Red and […]. Results are expressed as fold change in Nile Red staining: +palmitate/10% FBS medium (no palmitate).
Lipid Clearance in HepG2 and T6PNE Cells (Steatosis Assay). The steatosis assay was carried out as described (Kiselyuk, et al. (2012) Chem. Biol. 19(7):806-818) with the exception of the drug concentration, which was 20 μM for N-trans-caffeoyltyramine with 0.25 mM palmitate in HepG2 cell lines, and 10 μM of either N-trans-caffeoyltyramine, N-trans-caffeoyltyramine, or p-coumaroyltyramine, with 0.25 mM palmitate in T6PNE cell lines. Steatosis was assessed using the Oil Red O Method for Fats kits (Poly Scientific; Warrington, PA), per manufacturer's guidelines. Briefly, frozen tissue slides or fixed cells were incubated in neat propylene glycol for 2 minutes and Oil Red O solution for […] for slides or 1 hour for fixed cells, differentiated in 85% propylene glycol solution for 1 minute, washed twice with distilled water and stained in Hematoxylin of 10 seconds. Slides were mounted with glycerin jelly mounting medium.

O=C(/C=C/c1ccc(O)c(O)c1)NCCc1ccc(O)cc1 [N-trans-caffeoyltyramine]
estrogenic activity [1]: did not exhibit estrogenic activity | half-life at 1 μM ([2]; liver microsomes, pH 7.4, 1 μM): 2.1 min | microsomal CLint at 1 μM ([2]; liver microsomes, pH 7.4, 1 μM, read-out: Clearance Rate): 674 µL/min/mg | half-life at 10 μM ([2]; liver microsomes, pH 7.4, 10 μM): 22.4 min | microsomal CLint at 10 μM ([2]; liver microsomes, pH 7.4, 10 μM, read-out: Clearance Rate): 30.9 µL/min/mg | % Remaining ([2]; 1 μM): 0.6% | % Remaining ([2]; 10 μM): 33.6% | apparent major biotransformation pathway ([3]; human microsomes): oxidation of the left-hand aryl ring | % Remaining ([3]; human microsomes, 1 μM): 55.3% | % Remaining ([3]; human microsomes, 10 μM): 85.4% | stability in hepatic microsomes ([3]; human, rat and mouse hepatic microsomes): stable | half-life at 1 μM ([3]; liver microsomes, pH 7.4, human microsomes, 1 μM): 77.3 min | microsomal CLint at 1 μM ([3]; liver microsomes, pH 7.4, human microsomes, 1 μM, read-out: Clearance Rate): 17.9 µL/min/mg | half-life at 10 μM ([3]; liver microsomes, pH 7.4, human microsomes, 10 μM): 262 min | microsomal CLint at 10 μM ([3]; liver microsomes, pH 7.4, human microsomes, 10 μM, read-out: Clearance Rate): 5.3 µL/min/mg | lipid accumulation when palmitate was added prior to compound ([4]; T6PNE cells pretreated 1 day with 0.06-0.25 mM palmitate, 15 μM compound, Nile Red, FIG. 6): reduced lipid accumulation; also recorded: can reverse fat accumulation | fat accumulation ([4]; T6PNE cells, 0.25 mM palmitate, 10 μM compound): inhibition of fat accumulation
